Reference: ChEMBL document CHEMBL2424626, “Synthesis and antiproliferative activities of quebecol and its analogs” (Bioorg Med Chem Lett, 2013)

How the values were obtained:
MCF7 [1] = assay: Antiproliferative activity against human MCF7 cells assessed as cell viability at 75 uM after 72 hrs relative to control; assay type: functional; conditions: MCF7, 72 h
HT-29 = assay: Antiproliferative activity against human HT-29 cells assessed as cell viability at 75 uM after 72 hrs relative to control; assay type: functional; conditions: HT-29, 72 h
HeLa = assay: Antiproliferative activity against human HeLa cells assessed as cell viability at 75 uM after 72 hrs relative to control; assay type: functional
SK-OV-3 = assay: Antiproliferative activity against human SKOV3 cells assessed as cell viability at 75 uM after 72 hrs relative to control; assay type: functional; conditions: SK-OV-3, 72 h
MCF7 [2] = assay: Antiproliferative activity against human MCF7 cells after 72 hrs; assay type: functional, cell-based

SMILES | IC50 (MCF7 [2]; Homo sapiens, MCF7, 72 h) | IC50 (MCF7 [2]; mcf7) | inhibition at 75 µM (MCF7 [1]) | inhibition at 75 µM (HT-29) | inhibition at 75 µM (HeLa) | inhibition at 75 µM (SK-OV-3)
CCOC(=O)C(c1ccc(OC)cc1)C(c1ccc(O)cc1)c1ccc(O)cc1 (stereo not drawn) | – | – | 75% | – | – | –
OCC(c1ccccc1)C(c1ccc(O)cc1)c1ccc(O)cc1 (stereo not drawn) | – | – | 80% | 80% | 80% | 80%
COc1cc(C(CO)C(c2ccc(O)c(OC)c2)c2ccc(O)c(OC)c2)ccc1O (stereo in doubt; 9a) | – | 103 µM | – | – | – | –
CCOC(=O)C(c1ccc(O)c(OC)c1)C(c1ccc(O)cc1)c1ccc(O)cc1 (stereo not drawn) | – | – | 75% | – | – | –
COc1cc(C(CO)C(c2ccc(O)c(OC)c2)c2ccc(O)c(OC)c2)ccc1O (stereo in doubt) | 104 µM | – | – | – | – | –

Second part, led by results:

IC50 (MCF7 [2]; Homo sapiens, MCF7, 72 h) | IC50 (MCF7 [2]; mcf7) | SMILES | inhibition at 75 µM (MCF7 [1]) | inhibition at 75 µM (HT-29) | inhibition at 75 µM (HeLa) | inhibition at 75 µM (SK-OV-3)
80.6 µM | – | CCOC(=O)C(c1ccccc1)C(c1ccc(O)cc1)c1ccc(O)cc1 (stereo not drawn) | 80% | 80% | 80% | 80%
85.1 µM | – | CCOC(=O)C(c1cccc(OC)c1)C(c1ccc(O)cc1)c1ccc(O)cc1 (stereo not drawn) | 80% | 80% | 80% | 80%
78.7 µM | – | CCOC(=O)C(c1ccc(C)cc1)C(c1ccc(O)cc1)c1ccc(O)cc1 (stereo not drawn) | 80% | 80% | 80% | 80%
